# Like-named read-outs stand apart in the source and are kept apart here.
# Columns and labels:
# [1] = tested on: Candida albicans ATCC 10231; assay: Broth microdilution MIC/MFC, reference strain; type: cell-based; conditions: C. albicans ATCC 10231
# Source text: (§1) The examined compounds 3a–3j were screened in vitro for antibacterial and antifungal activities using the broth microdilution method according to European Committee on Antimicrobial Susceptibility Testing (EUCAST) (EUCAST [2003]) and Clinical and Laboratory Standards Institute guidelines (CLSI [2012]) against reference strains of microorganisms from American Type Culture Collection (ATCC), including fungi belonging to yeasts (Candida albicans ATCC 2091, Candida albicans ATCC 10231, Candida parapsilosis ATCC 22019 and Candida krusei ATCC 14243).
# (§2) In the study of antifungal activity of the compounds 3a–3j, 15 clinical strains of different species of yeasts from Candida species, namely C. albicans, C. dubliniensis C. famata, C. inconspicua, C. krusei, C. tropicalis, C. glabrata, C. lambica, C. kefyr, C. lusitaniae, C. parapsilosis, C. guilliermondii, C. lusitaniae, C. pulcherrima and C. sake were also used. These fungi were isolated by the author (from Department of Pharmaceutical Microbiology of Medical University in Lublin, Poland) from different clinical materials, e.g., from upper respiratory tract of hospitalized patients including cancer patients (i.e., with non-small cell lung cancer or hematological malignancies). Some patients were after pre-operative or post-operative chemotherapy (treated with etoposide or cis-platin given in doses according to the standard procedures), patients with chronic hepatitis C (undergoing peginterferon and ribavirin therapy or without antiviral therapy), patients with diabetes, elderly people, aged of 65 years old or older, staying in close population, such as a care centre and people staying outside the home care. The Ethical Committee of the Medical University of Lublin approved the study protocol (No. KE-0254/75/2011). The isolates were identified by standard diagnostic methods—biochemical microtest, e.g., API 20C AUX, ID 32C, API Candida (bioMérieux) on the basis of assimilation of various substrates. All the used microbial cultures were first subcultured on nutrient agar or Sabouraud agar for bacteria and fungi, respectively. The RPMI 1640 with MOPS (for fungi) were inoculated with the suspensions of fungal species. Microbial suspensions were prepared in sterile saline (0.85% NaCl) with an optical density of 0.5 McFarland standard scale (Wiegand et al. [2008]). Samples containing examined compounds were dissolved in dimethyl sulfoxide (DMSO). Furthermore, fungal suspensions were put onto Petri dishes with solid media containing 2 mg/ml of the tested compounds followed incubation under appropriate conditions. The inhibition of microbial growth was judged by comparison with a control culture prepared without any sample tested. Nystatin (Sigma) was used as a reference antifungal compound. Subsequently MIC minimal inhibitory concentration (MIC) of the compounds was examined by the microdilution broth method, using their two-fold dilutions in RPMI 1640 broth with MOPS prepared in 96-well polystyrene plates. Final concentrations of the compounds ranged from 1000 to 0.0038 µg/ml. Microbial suspensions were prepared in sterile saline with an optical density of 0.5 McFarland standard. Next fungal suspension was added per each well containing broth and various concentrations of the examined compounds. After incubation, the MIC was assessed spectrophotometric as the lowest concentration of the samples showing complete fungal growth inhibition. Appropriate DMSO, growth and sterile controls were carried out. The medium with no tested substances was used as a control (Wiegand et al. [2008]). The minimal fungicidal concentration (MFC) are defined as the lowest concentration of the compounds that is required to kill a particular fungal species. MFC was determined by removing the culture using for MIC determinations from each well and spotting onto appropriate agar medium. The plates were incubated. The lowest compounds concentration with no visible growth observed was assessed as a fungicidal concentration. […]
# [2] = tested on: Candida krusei ATCC 14243; assay: Broth microdilution MIC/MFC, reference strain; type: cell-based; conditions: C. krusei ATCC 14243
# Source text: as §1, §2
# [3] = tested on: Candida albicans ATCC 2091; assay: Broth microdilution MIC/MFC, reference strain; type: cell-based; conditions: C. albicans ATCC 2091
# Source text: as §1, §2
# [4] = tested on: Candida parapsilosis ATCC 22019; assay: Broth microdilution MIC/MFC, reference strain; type: cell-based; conditions: C. parapsilosis ATCC 22019
# Source text: as §1, §2
# [5] = tested on: maximal electroshock seizures; assay: Maximal electroshock seizure (MES) test; type: in vivo, mouse; conditions: mice; for responders at 100 mg/kg / responders at 30 mg/kg: Mus musculus; for responders at 100 mg/kg / animals with reduced seizures / responders at 30 mg/kg: MES test; for responders at 100 mg/kg: 100 mg/kg ip, read-out: X/Y number of mice protected (X) per number of mice tested (Y) (converted); for animals with reduced seizures: 100 mg/kg; for responders at 30 mg/kg: 30 mg/kg ip, read-out: X/Y number of mice protected (X) per number of mice tested (Y); for anticonvulsant activity in MES test: 30 mg/kg
# Experimental: For in vivo tests that assessed anticonvulsant properties of the test compounds 3a–3j adult male Albino Swiss (CD-1) mice weighing between 18 and 22 g were used. The animals were housed in groups of ten mice per cage at room temperature of 22 ± 2 °C, under light/dark (12:12) cycle. The animals had free access to food and tap water before the experiments. The ambient temperature of the experimental room and humidity (50 ± 10%) were kept consistent throughout all the tests. For behavioral experiments the animals were selected randomly. Each experimental group consisted of 4–8 animals/dose. The experiments were performed between 9 AM and 2 PM. Immediately after the in vivo assay the animals were euthanized by cervical dislocation. All procedures were approved by the Local Ethics Committee of the Jagiellonian University in Krakow (34/2018, 1.02.2018)) and the treatment of animals was in full accordance with ethical standards laid down in respective Polish and EU regulations (Directive No. 86/609/EEC). For in vivo tests the compounds 3a–3j were prepared in 1% Tween 80 solution (POCH, Poland) and they were administered by the intraperitoneal route. Control mice received 1% Tween 80. Pentylenetetrazole (PTZ), pilocarpine hydrochloride and scopolamine butylbromide were provided by Sigma Aldrich (Poland). For the tests they were prepared in 0.9% saline (Polfa Kutno, Poland). PTZ and pilocarpine were administered 60 min after the test compound or vehicle. To assess anticonvulsant properties of the test compounds anticonvulsant screening was conducted. Four assays were used: PTZ, maximal electroshock seizure (MES), 6-Hz and pilocarpine tests. In these assays the dose of 100 mg/kg was chosen as a starting dose. If it turned out to be effective, a lower dose (30 mg/kg) was also tested. MES test was performed according to a method previously described (Sałat et al. [2005]). In this test vehicle-treated mice and drug-treated mice received a stimulus of 25 mA delivered by an electroshock generator (Hugo Sachs rodent shocker, Germany) to induce maximal seizures (tonic extension) of hind limbs. Electroconvulsions were produced with the use of auricular electrodes and the stimulus duration was 0.2 s. Tonic extension of the hind limbs was regarded as the endpoint for this procedure.
# [6] = Candida albicans, ATCC10231, read-out: MFC
# [7] = Candida albicans, ATCC10231, read-out: MIC
# [8] = Pichia kudriavzevii, ATCC14243, read-out: MFC
# [9] = Pichia kudriavzevii, ATCC14243, read-out: MIC
# [10] = Candida albicans, ATCC2091, read-out: MFC
# [11] = Candida albicans, ATCC2091, read-out: MIC
# [12] = Lodderomyces parapsilosis, ATCC22019, read-out: MFC
# [13] = Lodderomyces parapsilosis, ATCC22019, read-out: MIC
smiles,measurement,setting,value
"Fc1ccc(-c2csc(N/N=C/C3CC3)n2)cc1 [Compound 3a, (E)-2-(2-(Cyclopropylmethylene)hydrazinyl)-4-(4-fluorophenyl)thiazole]",MFC,[1]; [6],15.6 µg/mL
same,MIC,[1]; [7],1.95 µg/mL
same,MFC,[2]; [8],15.6 µg/mL
same,MIC,[2]; [9],3.91 µg/mL
same,MFC,[3]; [10],3.91 µg/mL
same,MIC,[3]; [11],1.95 µg/mL
same,MFC,[4]; [12],3.91 µg/mL
same,MIC,[4]; [13],1.95 µg/mL
same,responders at 100 mg/kg,[5],37.5%
"Brc1ccc(-c2csc(N/N=C/C3CC3)n2)cc1 [Compound 3b, (E)-4-(4-Bromophenyl)-2-(2-(cyclopropylmethylene)hydrazinyl)thiazole]",MFC,[1]; [6],0.24 µg/mL
same,MIC,[1]; [7],0.06 µg/mL
same,MFC,[2]; [8],0.98 µg/mL
same,MIC,[2]; [9],0.24 µg/mL
same,MFC,[3]; [10],0.98 µg/mL
same,MIC,[3]; [11],0.12 µg/mL
same,MFC,[4]; [12],1.95 µg/mL
same,MIC,[4]; [13],0.48 µg/mL
same,responders at 100 mg/kg,[5],37.5%
"Clc1ccc(-c2csc(N/N=C/C3CC3)n2)cc1 [Compound 3c, (E)-4-(4-Chlorophenyl)-2-(2-(cyclopropylmethylene)hydrazinyl)thiazole]",MFC,[1]; [6],0.24 µg/mL
same,MIC,[1]; [7],0.12 µg/mL
same,MFC,[2]; [8],0.98 µg/mL
same,MIC,[2]; [9],0.12 µg/mL
same,MFC,[3]; [10],0.48 µg/mL
same,MIC,[3]; [11],0.12 µg/mL
same,MFC,[4]; [12],1.95 µg/mL
same,MIC,[4]; [13],0.48 µg/mL
same,animals with reduced seizures,[5],75%
same,responders at 30 mg/kg,[5],0%
same,responders at 100 mg/kg,[5],75%
same,anticonvulsant activity in MES test,[5],not active
"Cc1ccc(-c2csc(N/N=C/C3CC3)n2)cc1 [Compound 3d, (E)-2-(2-(Cyclopropylmethylene)hydrazinyl)-4-p-tolylthiazole]",MFC,[1]; [6],0.24 µg/mL
same,MIC,[1]; [7],0.06 µg/mL
same,MFC,[2]; [8],0.48 µg/mL
same,MIC,[2]; [9],0.06 µg/mL
same,MFC,[3]; [10],1.95 µg/mL
same,MIC,[3]; [11],0.12 µg/mL
same,MFC,[4]; [12],0.98 µg/mL
same,MIC,[4]; [13],0.24 µg/mL
same,responders at 100 mg/kg,[5],37.5%
"FC(F)(F)c1ccc(-c2csc(N/N=C/C3CC3)n2)cc1 [Compound 3e, (E)-2-(2-(Cyclopropylmethylene)hydrazinyl)-4-(4-(trifluoromethyl)phenyl)thiazole]",animals with reduced seizures,[5],63%
same,responders at 30 mg/kg,[5],0%
same,responders at 100 mg/kg,[5],62.5%
same,anticonvulsant activity in MES test,[5],not active
"COc1ccc(-c2csc(N/N=C/C3CC3)n2)cc1 [Compound 3f, (E)-2-(2-(Cyclopropylmethylene)hydrazinyl)-4-(4-methoxyphenyl)thiazole]",MFC,[1]; [6],0.03 µg/mL
same,MIC,[1]; [7],0.015 µg/mL
same,MFC,[2]; [8],0.98 µg/mL
same,MIC,[2]; [9],0.48 µg/mL
same,MFC,[3]; [10],1.95 µg/mL
same,MIC,[3]; [11],0.24 µg/mL
same,MFC,[4]; [12],3.91 µg/mL
same,MIC,[4]; [13],0.48 µg/mL
same,responders at 100 mg/kg,[5],50%
"Fc1ccc(-c2csc(N/N=C/C3CC3)n2)c(F)c1 [Compound 3g, (E)-2-(2-(Cyclopropylmethylene)hydrazinyl)-4-(2,4-difluorophenyl)thiazole]",MFC,[1]; [6],0.98 µg/mL
same,MIC,[1]; [7],0.48 µg/mL
same,MFC,[2]; [8],31.2 µg/mL
same,MIC,[2]; [9],7.81 µg/mL
same,MFC,[3]; [10],1.95 µg/mL
same,MIC,[3]; [11],1.95 µg/mL
same,MFC,[4]; [12],3.91 µg/mL
same,MIC,[4]; [13],3.91 µg/mL
same,responders at 100 mg/kg,[5],37.5%
"N#Cc1ccc(-c2csc(N/N=C/C3CC3)n2)cc1 [Compound 3h, (E)-4-(2-(2-(Cyclopropylmethylene)hydrazinyl)thiazol-4-yl)benzonitrile]",MFC,[1]; [6],1.95 µg/mL
same,MIC,[1]; [7],0.48 µg/mL
same,MFC,[2]; [8],1.95 µg/mL
same,MIC,[2]; [9],0.98 µg/mL
same,MFC,[3]; [10],3.91 µg/mL
same,MIC,[3]; [11],1.95 µg/mL
same,MFC,[4]; [12],3.91 µg/mL
same,MIC,[4]; [13],3.91 µg/mL
same,responders at 100 mg/kg,[5],50%
"[N-]=[N+]=Nc1ccc(-c2csc(N/N=C/C3CC3)n2)cc1 [Compound 3i, (E)-4-(4-Azidophenyl)-2-(2-(cyclopropylmethylene)hydrazinyl)thiazole]",MFC,[1]; [6],1.95 µg/mL
same,MIC,[1]; [7],0.24 µg/mL
same,MFC,[2]; [8],1.95 µg/mL
same,MIC,[2]; [9],0.48 µg/mL
same,MFC,[3]; [10],3.91 µg/mL
same,MIC,[3]; [11],0.98 µg/mL
same,MFC,[4]; [12],7.81 µg/mL
same,MIC,[4]; [13],0.98 µg/mL
same,responders at 100 mg/kg,[5],37.5%
"O=[N+]([O-])c1ccc(-c2csc(N/N=C/C3CC3)n2)cc1 [Compound 3j, (E)-2-(2-(Cyclopropylmethylene)hydrazinyl)-4-(4-nitrophenyl)thiazole]",MFC,[1]; [6],1.95 µg/mL
same,MIC,[1]; [7],0.48 µg/mL
same,MFC,[2]; [8],3.91 µg/mL
same,MIC,[2]; [9],0.98 µg/mL
same,MFC,[3]; [10],7.81 µg/mL
same,MIC,[3]; [11],3.91 µg/mL
same,MFC,[4]; [12],31.2 µg/mL
same,MIC,[4]; [13],3.91 µg/mL
same,responders at 100 mg/kg,[5],50%
"C[C@@H]1[C@H](O)[C@@H](C)/C=C/C=C/CC/C=C/C=C/C=C/C=C/C(O[C@H]2O[C@H](C)[C@@H](O)[C@H](N)[C@@H]2O)CC2O[C@](O)(CC(O)C(O)CCC(O)CC(O)CC(O)CC(=O)O[C@H]1C)CC(O)C2C(=O)O (stereo partly shown) [Nystatin, reference compound]",MFC,[1],0.48 µg/mL
same,MFC/MIC,[1],1
same,MIC,[1],0.48 µg/mL
same,MFC,[2],0.24 µg/mL
same,MFC/MIC,[2],1
same,MIC,[2],0.24 µg/mL
same,MFC,[3],0.24 µg/mL
same,MFC/MIC,[3],1
same,MIC,[3],0.24 µg/mL
same,MFC,[4],0.48 µg/mL
same,MFC/MIC,[4],2
same,MIC,[4],0.24 µg/mL

# — paper PMC6133161, “Thiazoles with cyclopropyl fragment as antifungal, anticonvulsant, and anti-Toxoplasma gondii agents: synthesis, toxicity evaluation, and molecular docking study” (Medicinal Chemistry Research, 2018)
